Experimental data from US7125911B2, “Autonomic nerve regulating agent” (Kao Corporation, priority 2000, dated 2006).

Assays:
[1] = Vapor pressure of purified cedrol by static method and gas flow method; format: physicochemical; conditions: ambient temperature (unheated)
Procedure: The vapor pressure of purified cedrol (molecular weight 222 g·mol^−1) used in the following examples was determined by a static method and a gas flow method (temperature: 22, 50, and 75° C. for solids; 100 and 125° C. for liquids).
In the static method, samples were taken from hermetically sealed containers, a constant temperature was established, and the equilibrium vapor pressure at that temperature was directly measured using a pressure gauge (OECD Test Guidelines 104: Static Measurement of Vapor Pressure).
In the gas flow method, carrier gas (nitrogen gas) was allowed to flow so as to come into contact with a solid or liquid sample at a certain temperature to saturate the sample vapor, and the vapor density (vaporization quantity/volume) was measured so as to determine the vapor pressure hypothetically in accordance with ideal gas principles. The vapor density herein referred to is calculated from the sample vaporization rate (rate of loss) determined using an electrical balance, and the carrier gas flow rate determined using a flow rate gauge. However, since the sample vapor saturation is usually incomplete, the vapor density level is dependent on flow rate, so the vapor density was measured at varying flow rates for extrapolation to a zero flow rate to determine the saturated vapor density. […]

[2] = tested on: women in their twenties complaining of fatigue (sympathetic overactivity); assay: Inhalation of cedrol for 30 seconds with ECG, blood pressure and respiration monitoring (Example 1); format: in vivo, human; conditions: after vs before inhalation, 10 wt % in dipropylene glycol, significance 5%
Procedure: The subjects were ten women in their twenties complaining of fatigue (sympathetic overactivity), who were asked to inhale, for 30 seconds, cedrol dissolved in dipropylene glycol (10 wt % concentration), while ECG at rest (chest V5 lead), blood pressure (tonometry), and respiration (pulmonary volume instantaneously measured by respiratory rate sensor) were monitored. The changes in parameters before and after measurement were compared. Frequency analysis of R—R interval fluctuations was performed for low frequency components integrating amplitudes 0.02 to 0.12 Hz (sum of low frequency: Lsum) and high frequency components integrating amplitudes 0.12 to 2.00 Hz (sum of high frequency: Hsum) using the rapid Fourier transform. As used here, the Hsum is an indicator of parasympathetic nervous activity, and the Lsum/Hsum is an indicator of sympathetic nervous activity.
The measurement results were statistically analyzed by Welch's t-test or Student's t-test based on the F test.

[3] = tested on: insomniac women in their twenties (parasympathetic predominance to excess); assay: Inhalation of cedrol for 30 seconds with ECG, blood pressure and respiration monitoring (Example 2); format: in vivo, human; conditions: after vs before inhalation, insomniac subjects
From the text: The subjects were ten insomniac women in their twenties (under considerable pressure to get to sleep, with parasympathetic predominance to excess), who were asked to inhale, for 30 seconds, cedrol dissolved in dipropylene glycol (10 wt % concentration), while ECG at rest (chest V5 lead), blood pressure (tonometry), and respiration (pulmonary volume instantaneously measured by respiratory rate sensor), and skin blood flow of forehead (measured by laser Doppler methods) were monitored. The changes in parameters before and after measurement were compared. Frequency analysis of R—R interval fluctuations and statistical analysis of the measurement results were done in the same manner as in Example 1.

[4] = tested on: women in their twenties suffering from poor sleep; assay: Sleep monitoring with cedrol vaporized in the room from bedtime until waking (Example 3); format: in vivo, human; conditions: significance 5%
Procedure: The subjects were ten women in their twenties suffering from poor sleep. ECG (chest V5 lead), brain waves (C3, O1 in the international 10–20 method), respiration (impedance method: abdomen and chest), superficial electromyogram (bipolar lead of left and right mentalis muscles), and ocular movement (bipolar lead without horizontally linking left and right eye-sockets) were monitored from the time the subjects went to bed until they woke in a 40 m^2 room. The cedrol was administered by placing Petri dishes filled with cedrol on 95° C. hot plates so that approximately 100 mg was vaporized per hour (about 1 ppb/hr), from the time subjects went to bed until they woke. Measurements were taken for 7 days. No administration took place on the first two days, in order to allow subjects to become acclimated to the measuring instruments and environment (control). On the third day, administration was managed without anything placed on the hot plates (placebo). After 3 days, cedrol was administered on the 7th day.
The subjects were interviewed about their condition on waking using a questionnaire based on POMS (profile of mood states) to assess mood. The changes in the parameters measured during the administration of cedrol and placebo treatment were compared.
Awakening and sleep stages were determined in accordance with international standards for determining sleep stages (Sleep Brain Wave Atlas, pp. 3–9, Ishiyaku Shuppan KK, published September, 1971, the relevant portions thereof which describe sleep analysis and standards are incorporated herein by reference). Frequency analysis of R—R interval fluctuations and statistical analysis of the measurement results were done in the same manner as in Example 1.

[5] = tested on: insomniac women in their fifties; assay: Sleep in a room with furnishings and bedding coated with cedrol, actigram assessment (Example 7); format: in vivo, human; conditions: furnishings and bedding coated with cedrol 1.5 μg/cm^2, 15th to 21st days, vs control week; p<0.01
Procedure: The subjects were twenty insomniac women in their fifties, while sleep was assessed from 3 hours before bed until wakening for 4 weeks in a room (sleeping room) at a temperature of 23° C. and a humidity of 50%. The first week served as a control. For the last 3 weeks, the test was conducted by replacing the curtains, wall paper, flooring, pillows, sheets, and bedding with those which had been coated with cedral (1.5 μg/cm^2).
The subjects ware actigrams for 4 continuous weeks on the opposite of their leading arm to allow assessment of the sleeping efficiency and intermittent awakening. Analyzed data for the cedrol coatings were from the 15th to 21st days following application.
Statistical analysis of the measurement results was the same as in Example 5.

[6] = within physiologically normal range, significance 5%
[7] = 7th day (cedrol) vs before administration and 3rd day (placebo treatment)
[8] = cedrol approximately 100 mg vaporized per hour vs placebo treatment

## C[C@@H]1CC[C@H]2C(C)(C)[C@H]3C[C@@]12CC[C@@]3(C)O [cedrol]
[1]
  vapor pressure (vaporizability): can be vaporized at ambient temperature
[2]
  ECG R-R interval: meaningfully longer
  Hsum (parasympathetic nervous activity indicator): meaningfully greater
  Lsum/Hsum (sympathetic nervous activity indicator): meaningfully lower
  diastolic blood pressure (DBP): meaningfully lower
  respiratory rate (RR): meaningfully lower
  systolic blood pressure (SBP): meaningfully lower
[3]
  ECG R-R interval: no meaningful change
  Hsum: tended to be lower
  Lsum/Hsum: tended to be higher
  respiratory rate (RR): no meaningful difference
[3]; [6]
  diastolic blood pressure (DBP): meaningfully higher
  systolic blood pressure (SBP): meaningfully higher
[4]; [7]
  POMS fatigue: meaningful (5%) improvement
  POMS tension: meaningful (5%) improvement
[4]; cedrol approximately 100 mg vaporized per hour (about 1 ppb/hr) vs placebo treatment
  Hsum during non-REM sleep: meaningfully increased
[4]; [8]
  cumulative incidence of stages 3 and 4 of sleep: meaningfully greater
  respiratory rate (RR) during non-REM sleep: meaningfully lower
[5]
  intermittent awakening: meaningfully fewer
  sleeping efficiency: meaningfully better
